Patent publication US9840513B2 (AbbVie S.à.r.l., priority 2015, dated 2017)

Assays:
[1] = target: T1, F508delCFTR cell surface expression in CFBE41o-F508delCFTR-HRP cells (Homo sapiens, UniProt P13569, DEL508-508); assay: Cell Surface Expression-Horse Radish Peroxidase (CSE-HRP) Assay; type: cell-based; details: for EC50: CFBE41o-F508delCFTR-HRP cells, 18-24 hours at 33° C., 8-point curve, highest concentration 20 μM; for Maximum % activity (%): maximum at any tested concentration, normalized to on-plate positive control (3 μM)
T1 construct: fused on or other part: Horseradish peroxidase (HRP) reporter inserted in the fourth exofacial (extracellular) loop of CFTR; expression is doxycycline-inducible
T1 sequence (P13569 with tags, fused parts or gaps DEL508-508 limits assumed): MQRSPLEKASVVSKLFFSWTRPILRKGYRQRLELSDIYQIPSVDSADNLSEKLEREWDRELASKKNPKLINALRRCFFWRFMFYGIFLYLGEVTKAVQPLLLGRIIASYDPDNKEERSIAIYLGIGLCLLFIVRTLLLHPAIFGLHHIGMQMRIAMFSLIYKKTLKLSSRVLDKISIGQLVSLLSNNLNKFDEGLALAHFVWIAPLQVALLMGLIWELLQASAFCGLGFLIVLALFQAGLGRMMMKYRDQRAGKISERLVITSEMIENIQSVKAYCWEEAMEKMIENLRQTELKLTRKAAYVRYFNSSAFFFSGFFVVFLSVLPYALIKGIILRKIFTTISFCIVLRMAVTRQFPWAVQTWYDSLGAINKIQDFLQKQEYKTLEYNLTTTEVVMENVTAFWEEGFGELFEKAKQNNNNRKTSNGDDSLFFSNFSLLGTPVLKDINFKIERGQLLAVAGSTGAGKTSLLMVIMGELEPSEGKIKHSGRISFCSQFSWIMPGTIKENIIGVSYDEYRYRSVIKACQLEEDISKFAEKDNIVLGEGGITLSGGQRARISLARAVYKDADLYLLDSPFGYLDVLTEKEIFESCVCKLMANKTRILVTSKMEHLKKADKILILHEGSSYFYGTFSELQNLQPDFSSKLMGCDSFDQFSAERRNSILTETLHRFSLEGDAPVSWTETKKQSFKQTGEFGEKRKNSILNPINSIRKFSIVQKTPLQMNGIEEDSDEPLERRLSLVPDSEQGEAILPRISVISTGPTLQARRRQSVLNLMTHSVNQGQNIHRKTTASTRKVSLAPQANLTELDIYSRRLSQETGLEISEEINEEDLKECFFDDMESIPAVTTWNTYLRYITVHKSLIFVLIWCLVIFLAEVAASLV
T1 sequence (P13569 919-1480 limits assumed, stated change not applied): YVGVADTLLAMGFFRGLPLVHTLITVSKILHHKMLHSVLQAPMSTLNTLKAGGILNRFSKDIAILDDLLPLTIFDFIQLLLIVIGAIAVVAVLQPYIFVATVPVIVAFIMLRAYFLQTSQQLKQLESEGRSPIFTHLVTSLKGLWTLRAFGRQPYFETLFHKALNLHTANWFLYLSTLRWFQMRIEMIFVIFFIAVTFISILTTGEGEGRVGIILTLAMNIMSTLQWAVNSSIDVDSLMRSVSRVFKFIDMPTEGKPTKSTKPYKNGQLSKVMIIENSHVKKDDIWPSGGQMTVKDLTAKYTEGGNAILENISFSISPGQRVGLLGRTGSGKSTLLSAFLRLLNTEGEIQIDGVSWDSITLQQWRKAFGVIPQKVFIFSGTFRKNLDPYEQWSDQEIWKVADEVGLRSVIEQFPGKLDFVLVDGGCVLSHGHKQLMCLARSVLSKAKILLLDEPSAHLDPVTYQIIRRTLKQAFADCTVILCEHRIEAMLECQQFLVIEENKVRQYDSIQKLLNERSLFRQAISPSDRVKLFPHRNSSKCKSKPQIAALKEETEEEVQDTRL
Procedure, shortened: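 CFBE41o- cells with HRP-tagged F508delCFTR, expression induced by 0.5 μg/mL doxycycline for 72 h at 37 °C, then compound for 18-24 h at 33 °C (8-point, 3-fold, top 20 μM). Surface HRP measured by luminol luminescence; % activity normalised to 3 μM positive-control corrector; EC50 from variable-slope sigmoidal fit, three replicate plates.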

[2] = target: T2, F508delCFTR in primary hBE cells with F508del/F508del CFTR mutation (Homo sapiens, UniProt P13569, DEL508-508); assay: Transepithelial Clamp Circuit on Human Bronchial Epithelial Cells Conductance Assay (hBE-TECC); type: cell-based; details: for EC50: primary hBE cells F508del/F508del, 18-24 hours at 37° C., equivalent short circuit current, 6 concentrations
T2 construct: cells isolated from CF patients with the homozygous mutation; endogenous in cells; host or cells: primary human bronchial epithelial (hBE) cells from F508del/F508del CF patients
T2 sequence (P13569 with tags, fused parts or gaps DEL508-508): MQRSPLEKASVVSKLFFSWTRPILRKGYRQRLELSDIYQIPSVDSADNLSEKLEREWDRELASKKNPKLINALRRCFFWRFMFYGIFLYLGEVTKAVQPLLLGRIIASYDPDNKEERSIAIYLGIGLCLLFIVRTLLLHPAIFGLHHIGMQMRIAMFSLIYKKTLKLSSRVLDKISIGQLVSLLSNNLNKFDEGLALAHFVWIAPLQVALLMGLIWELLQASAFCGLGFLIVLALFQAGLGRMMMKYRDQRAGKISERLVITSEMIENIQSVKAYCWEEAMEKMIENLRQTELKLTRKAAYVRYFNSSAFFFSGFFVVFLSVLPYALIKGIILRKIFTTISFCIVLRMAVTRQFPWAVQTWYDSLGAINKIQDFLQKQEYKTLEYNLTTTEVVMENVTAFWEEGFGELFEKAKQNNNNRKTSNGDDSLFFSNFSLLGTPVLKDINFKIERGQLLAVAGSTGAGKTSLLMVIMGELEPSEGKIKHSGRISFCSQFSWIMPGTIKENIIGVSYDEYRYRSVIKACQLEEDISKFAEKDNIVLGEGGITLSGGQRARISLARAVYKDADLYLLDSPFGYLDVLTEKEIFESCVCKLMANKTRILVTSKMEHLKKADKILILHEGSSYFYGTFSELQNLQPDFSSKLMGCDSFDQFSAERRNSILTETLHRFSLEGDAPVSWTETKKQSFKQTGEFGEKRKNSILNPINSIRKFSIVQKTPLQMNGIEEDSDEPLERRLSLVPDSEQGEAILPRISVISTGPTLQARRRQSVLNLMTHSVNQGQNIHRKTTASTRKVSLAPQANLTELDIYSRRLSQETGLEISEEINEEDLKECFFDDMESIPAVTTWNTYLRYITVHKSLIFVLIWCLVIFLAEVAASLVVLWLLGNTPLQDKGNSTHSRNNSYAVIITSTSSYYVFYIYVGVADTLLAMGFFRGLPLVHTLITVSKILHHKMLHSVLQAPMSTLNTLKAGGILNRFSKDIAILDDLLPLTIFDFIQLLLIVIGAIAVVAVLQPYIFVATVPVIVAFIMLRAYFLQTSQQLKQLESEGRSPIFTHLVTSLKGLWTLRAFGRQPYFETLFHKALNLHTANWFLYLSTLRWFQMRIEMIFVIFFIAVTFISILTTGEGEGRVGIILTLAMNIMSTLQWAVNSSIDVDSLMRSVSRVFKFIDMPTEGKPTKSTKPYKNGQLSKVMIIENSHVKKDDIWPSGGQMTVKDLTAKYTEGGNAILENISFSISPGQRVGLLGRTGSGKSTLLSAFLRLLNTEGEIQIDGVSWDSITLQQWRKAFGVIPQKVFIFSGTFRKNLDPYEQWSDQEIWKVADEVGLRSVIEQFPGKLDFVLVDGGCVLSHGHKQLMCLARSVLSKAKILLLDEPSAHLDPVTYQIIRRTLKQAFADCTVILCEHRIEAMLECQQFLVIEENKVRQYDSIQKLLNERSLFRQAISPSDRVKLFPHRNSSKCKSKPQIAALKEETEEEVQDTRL
Description: Transepithelial Clamp Circuit on Human Bronchial Epithelial Cells Conductance Assay:
A cell based assay using the primary human bronchial epithelial cells (hBE) was used as a secondary assay to test novel F508delCFTR correctors for their activity on primary hBE cells with F508del/F508del CFTR mutation. The assay used a TECC-24 (Transepithelial Clamp Circuit for 24 wells) instrument that measures the functionality of the mutated channel by measuring the equivalent short circuit current (Ieq) generated by the polarized epithelial cells. The instrument works by measuring the transepithelial potential difference (Vt) and transepithelial resistance (Rt) in an open circuit format, and the Ieq is calculated by using Ohms law (Ieq=Vt/Rt). The assay was run in a 24-well format and all 24-wells were measured at the same time point giving a higher throughput for this assay.
Primary human bronchial epithelial (hBE) cells from F508del/F508delCFTR patients were expanded from 1×10^6 to 250×10^6 cells (Neuberger T, Burton B, Clark H and VanGoor F; Cystic Fibrosis, Methods in Mole Biol 741; eds. Amaral M D and Kunzelmann K, 2011). For this purpose, cells isolated from CF patients with the homozygous mutation were seeded onto 24 well Corning (Cat #3378) filter plates that were coated with 3T3 conditioned media and grown at an air-liquid interface for 35 days using an Ultroser® G supplemented differentiation media. Apical surface mucus was removed 72 hours before the experiment using 3 mM dithiothreitol (DTT) in phosphate buffered saline (PBS). The apical surface was washed again 24 hours before the experiment using PBS. The cells were incubated with the desired dose response of the corrector compounds 18-24 hours at 37° C., 5% CO2. The corrector compounds are only added on the basolateral side of the epithelial cells.
On the day of measuring the corrector activity on the TECC, the cells were switched into a bicarbonate and serum free F-12 Coon's medium and allowed to equilibrate for 90 minutes in a CO2 free incubator. At the time of measurement, the apical and basolateral sides of the filter were bathed with the F-12 Coon's modification media (with 20 mM 4-(2-hydroxyethyl)-1-piperazineethanesulfonic acid (HEPES), pH 7.4 (using 1 M tris(hydroxymethyl)aminomethane (Tris)), and the measurements were made at 36.5° C. Transepithelial voltage (Vt) and transepithelial resistance (Rt) were measured using a 24 channel transepithelial current clamp (TECC-24). Current responses to the sequential addition of benzamil (apical 6 μM addition; for inhibiting epithelial ENaC channel), forskolin (apical and basolateral 10 μM addition; for activating the CFTR channel), control potentiator (N-(3-carbamoyl-5,5,7,7-tetramethyl-4,7-dihydro-5H-thieno[2,3-c]pyran-2-yl)-1H-pyrazole-5-carboxamide; apical and basolateral […] addition; for potentiating the CFTR channel) and bumetanide (basolateral 20 μM addition; for inhibiting the Na:2Cl:K co-transporter, an indirect measure of inhibiting the Cl-secretion driven by CFTR channel) were measured.
All plates contained negative controls (dimethyl sulfoxide, DMSO) which coupled with the control potentiator (N-(3-carbamoyl-5,5,7,7-tetramethyl-4,7-dihydro-5H-thieno[2,3-c]pyran-2-yl)-1H-pyrazole-5-carboxamide) sets the null response and positive controls (3 μM of 3-[(2R,4R)-4-({[1-(2,2-difluoro-1,3-benzodioxol-5-yl)cyclopropyl]carbonyl}amino)-7-methoxy-3,4-dihydro-2H-chromen-2-yl]benzoic acid) coupled with the control potentiator sets the 100% response to measure the correction of the mutated CFTR channel. The maximum percent activity is reported relative to the positive control value.
The % activity measured at each of the 6 test concentrations of the test compound was normalized to the on-plate positive control using the following formula: % activity=[[…]]*100 […]

[3] = relative to positive control (3 μM) coupled with control potentiator

Row | Structure (SMILES) | EC50 [1] | Maximum % activity (%) [1] | EC50 [2] | Maximum % activity (%) [2, 3] | Maximum % activity (%) ([2]; testing concentration 3 μM)
1 | COc1ccc2c(c1)O[C@@H](c1cnc([C@H](O)CO)cn1)C[C@H]2NC(=O)[C@@]1(C)COc2cc3c(cc21)OC(F)(F)O3 (single isomer, unassigned) [Example 192] | 90 nM | 126% | 6 nM | 103% | –
2 | COc1ccc2c(c1)O[C@@H](c1ccc(CO)nc1)C[C@H]2NC(=O)[C@@]1(C)COc2cc3c(cc21)OC(F)(F)O3 [Example 178, (7R)-2,2-difluoro-N-{(2R,4R)-2-[6-(hydroxymethyl)pyridin-3-yl]-7-methoxy-3,4-dihydro-2H-1-benzopyran-4-yl}-7-methyl-6,7-dihydro-2H-furo[2,3-f][1,3]benzodioxole-7-carboxamide] | 290 nM | 158% | 66 nM | 108% | –
3 | C[C@]1(C(=O)N[C@@H]2C[C@H](c3ccc(C(=O)O)cn3)Oc3cc(OC(F)F)ccc32)COc2cc3c(cc21)OC(F)(F)O3 [Example 151, 6-[(2R,4R)-7-(difluoromethoxy)-4-{[(7R)-2,2-difluoro-7-methyl-6,7-dihydro-2H-furo[2,3-f][1,3]benzodioxole-7-carbonyl]amino}-3,4-dihydro-2H-1-benzopyran-2-yl]pyridine-3-carboxylic acid] | 12 nM | 132% | 7.6 nM | 93% | –
4 | C[C@]1(C(=O)N[C@@H]2C[C@H]([C@H]3CC[C@H](C(=O)O)CC3)Oc3cc(OC(F)(F)F)ccc32)CCc2cc3c(cc21)OC(F)(F)O3 [Example 167, trans-4-[(2R,4R)-4-{[(5S)-2,2-difluoro-5-methyl-6,7-dihydro-2H,5H-indeno[5,6-d][1,3]dioxole-5-carbonyl]amino}-7-(trifluoromethoxy)-3,4-dihydro-2H-1-benzopyran-2-yl]cyclohexane-1-carboxylic acid] | 53 nM | 135% | 87 nM | 112% | –
5 | C[C@]1(C(=O)Nc2cc3cc(C4(CO)COC4)n(C[C@@H](O)CO)c3cc2F)COc2cc3c(cc21)OC(F)(F)O3 [Example 135, (7R)—N-{1-[(2R)-2,3-dihydroxypropyl]-6-fluoro-2-[3-(hydroxymethyl)oxetan-3-yl]-1H-indol-5-yl}-2,2-difluoro-7-methyl-6,7-dihydro-2H-furo[2,3-f][1,3]benzodioxole-7-carboxamide] | 2560 nM | 58% | 2700 nM | 62% | –
6 | COc1ccc2c(c1)O[C@@H](c1ccc(C(=O)O)cc1)C[C@H]2NC(=O)C1(C)COc2c1ccc1c2OC(F)(F)O1 (stereo partly drawn) [Example 39, 4-{(2R,4R)-4-[(2,2-difluoro-6-methyl-6,7-dihydro-2H-furo[2,3-e][1,3]benzodioxole-6-carbonyl)amino]-7-methoxy-3,4-dihydro-2H-1-benzopyran-2-yl}benzoic acid] | 1260 nM | 106% | – | – | 47%
7 | COc1ccc2c(c1)O[C@@H](c1cnc(C(O)CO)cn1)C[C@H]2NC(=O)[C@@]1(C)COc2cc3c(cc21)OC(F)(F)O3 (stereo partly drawn) [Example 175, (7R)—N-{(2R,4R)-2-[5-(1,2-dihydroxyethyl)pyrazin-2-yl]-7-methoxy-3,4-dihydro-2H-1-benzopyran-4-yl}-2,2-difluoro-7-methyl-6,7-dihydro-2H-furo[2,3-f][1,3]benzodioxole-7-carboxamide] | 220 nM | 139% | 43 nM | 107% | –
8 | COc1ccc2c(c1)O[C@@H](c1ccc(C(=O)N3CCOCC3)cn1)C[C@H]2NC(=O)[C@@]1(C)COc2cc3c(cc21)OC(F)(F)O3 [Example 220, (7R)-2,2-difluoro-N-{(2R,4R)-7-methoxy-2-[5-(morpholine-4-carbonyl)pyridin-2-yl]-3,4-dihydro-2H-1-benzopyran-4-yl}-7-methyl-6,7-dihydro-2H-furo[2,3-f][1,3]benzodioxole-7-carboxamide] | 10 nM | 112% | 10 nM | 94% | –

Second part, the compound after the results:

Row | EC50 [1] | Maximum % activity (%) [1] | EC50 [2] | Maximum % activity (%) [2, 3] | Maximum % activity (%) ([2]; testing concentration 3 μM) | Structure (SMILES)
9 | 20 nM | 135% | 1 nM | 95% | – | COc1ccc2c(c1)O[C@@H](c1cnc(N3C[C@@H](O)[C@H](O)C3)cn1)C[C@H]2NC(=O)[C@@]1(C)COc2cc3c(cc21)OC(F)(F)O3 [Example 250, (7R)—N-[(2R,4R)-2-{5-[(3R,4R)-3,4-dihydroxypyrrolidin-1-yl]pyrazin-2-yl}-7-methoxy-3,4-dihydro-2H-1-benzopyran-4-yl]-2,2-difluoro-7-methyl-6,7-dihydro-2H-furo[2,3-f][1,3]benzodioxole-7-carboxamide]
10 | 60 nM | 157% | 21 nM | 104% | – | C[C@]1(C(=O)N[C@@H]2C[C@H]([C@H]3CC[C@H](C(=O)NCCO)CC3)Oc3cc(OC(F)(F)F)ccc32)COc2cc3c(cc21)OC(F)(F)O3 [Example 261, (7R)-2,2-difluoro-N-[(2R,4R)-2-{trans-4-[(2-hydroxyethyl)carbamoyl]cyclohexyl}-7-(trifluoromethoxy)-3,4-dihydro-2H-1-benzopyran-4-yl]-7-methyl-6,7-dihydro-2H-furo[2,3-f][1,3]benzodioxole-7-carboxamide]
11 | 30 nM | 128% | 5 nM | 86% | – | COc1ccc2c(c1)O[C@@H](c1ccc(N3C[C@@H](O)[C@H](O)C3)nn1)C[C@H]2NC(=O)[C@@]1(C)COc2cc3c(cc21)OC(F)(F)O3 [Example 251, (7R)—N-[(2R,4R)-2-{6-[(3R,4R)-3,4-dihydroxypyrrolidin-1-yl]pyridazin-3-yl}-7-methoxy-3,4-dihydro-2H-1-benzopyran-4-yl]-2,2-difluoro-7-methyl-6,7-dihydro-2H-furo[2,3-f][1,3]benzodioxole-7-carboxamide]
12 | 70 nM | 167% | 4 nM | 118% | – | CCCN(CCO)C(=O)[C@H]1CC[C@H]([C@H]2C[C@@H](NC(=O)[C@@]3(C)COc4cc5c(cc43)OC(F)(F)O5)c3ccc(OC(F)(F)F)cc3O2)CC1 [Example 263, (7R)-2,2-difluoro-N-[(2R,4R)-2-{trans-4-[(2-hydroxyethyl)(propyl)carbamoyl]cyclohexyl}-7-(trifluoromethoxy)-3,4-dihydro-2H-1-benzopyran-4-yl]-7-methyl-6,7-dihydro-2H-furo[2,3-f][1,3]benzodioxole-7-carboxamide]
